US20150064220A1, “METHODS FOR MODULATING CELL-MEDIATED IMMUNITY USING HUMAN MILK OLIGOSACCHARIDES” (ABBOTT LABORATORIES, priority 2012, published 2015)

What was measured:
[1] = system: Peripheral blood mononuclear cells (PBMCs); assay: PBMC proliferation by tritiated thymidine incorporation, with or without the T-cell mitogen PHA; assay type: cell-based, piglets; conditions: 72 hours; for unstimulated peripheral blood mononuclear cell proliferation: HMO or HMO mixture 125 μg/mL alone (no PHA), FIG. 2; for PHA-stimulated peripheral blood mononuclear cell proliferation: HMO or HMO mixture 125 μg/mL with 25 μg/mL PHA, compared to cultures containing no HMO, FIG. 1
Protocol: T-cell mediated responses were assessed by proliferative responses to the T-cell mitogen phytohemagglutinin (PHA) (simulates infection). […] Peripheral blood mononuclear cells (PBMCs) were isolated using standard density gradient (Ficoll-Paque PLUS) techniques. Residual red blood cells were lysed with a hypotonic ammonium chloride solution. Cells were washed and resuspended in RPMI (Roswell Park Memorial Institute medium) media containing: 10% fetal bovine serum, 2 mM Glutamine, 1 mM sodium pyruvate, 20 mM HEPES (4-(2-hydroxyethyl)-1-piperazineethanesulfonic acid), 50 μg/mL gentamicin, 1000 IU/mL penicillin and 100 μg/mL streptomycin, at a concentration of 1×10^6/mL, and then cultured in the presence or absence of the individual HMOs or HMO mixtures at a concentration of 125 μg/mL, alone or in combination with 25 μg/mL PHA. Cells were cultured for 72 hours, and cellular proliferation was determined using standard tritiated thymidine incorporation methodology.

[2] = system: T regulatory cells (FoxP3+, CD4+, CD25+) in mesenteric lymph nodes; assay: T-regulatory cells in mesenteric lymph nodes of orally supplemented mice, by flow cytometry; assay type: in vivo; conditions: oral 7.5 mg daily for 5 days versus PBS, day six, FIG. 3
Protocol: Mice were orally supplemented with 7.5 mg of 2′FL in 200 μL of PBS (n=5) or 200 μL of PBS (n=5) daily for 5 days. On day six, mice were sacrificed and lymphocytes from mesenteric lymph nodes were removed and isolated using standard methods. Mesenteric lymph node lymphocytes (MLNLs) were stained with fluorochrome labeled monoclonal antibodies specific for CD4 and CD25 surface markers. Cells were then fixed with a paraformaldehyde solution to maintain surface marker staining integrity. Stained MLNLs were permeabilized with a saponin-based solution to allow for intracellular uptake of monoclonal antibodies and then stained with a fluorochrome labeled monoclonal antibody specific for the transcription factor FoxP3. All cell preparation methods used were based on recommendations of the monoclonal antibody manufacturer. MLNL suspensions were analyzed by flow cytometery. FoxP3^+, CD4^+, and CD25^+ cells are classified T regulatory cells.

[3] = system: gastrointestinal epithelial cells; conditions: Kuntz et al (2008); cited from earlier work

Molecule	unstimulated peripheral blood mononuclear cell proliferation [1]	PHA-stimulated peripheral blood mononuclear cell proliferation [1]	further results
2′-fucosyllactose [2′FL]	decreased unstimulated peripheral blood mononuclear cell proliferation	–	percentage of T-regulatory cells in mesenteric lymph nodes [2]: generation of T regulatory cells
3-fucosyllactose [3′FL]	decreased unstimulated peripheral blood mononuclear cell proliferation	–	–
CC(=O)N[C@H]1[C@H](O[C@H]2[C@@H](O)[C@@H](CO)O[C@@H](O[C@H]3[C@H](O)[C@@H](O)C(O)O[C@@H]3CO)[C@@H]2O)O[C@H](CO)[C@@H](O[C@@H]2O[C@H](CO)[C@H](O)[C@H](O)[C@H]2O)[C@@H]1O (mixture of isomers) [LNnT, Lacto-N-neotetraose]	this was not seen	did not significantly enhance proliferation	–
Fucosyllactose [FL]	–	did not significantly enhance proliferation	–
sialyllactose [SL]	–	–	differentiation of gastrointestinal epithelial cells [3]: increases differentiation; proliferation of gastrointestinal epithelial cells [3]: decreases proliferation
